# US20040248887A1, “Inhibitors of cathepsin S” (IRM LLC, priority 2003, published 2004)
# Target: Cathepsin S (Homo sapiens, UniProt P25774)
# Assay: Cathepsin S inhibition, fluorogenic peptide substrate kinetic assay
# Format: biochemical
# Conditions: Table II; Cathepsin S inhibition constant, pH5.5; read-out: Ki Cat. S
# Method in brief: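 Ki values derive from apparent constants fitted to progress curves, corrected for competition with substrate via [S] and Km. Kinetics were monitored at 380 nm excitation/450 nm emission, after substrate addition (Ac-HPVK-ACC, 50 μM final) to start the reaction.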
# Cathepsin S, sequence (P25774 115-331, species assumed): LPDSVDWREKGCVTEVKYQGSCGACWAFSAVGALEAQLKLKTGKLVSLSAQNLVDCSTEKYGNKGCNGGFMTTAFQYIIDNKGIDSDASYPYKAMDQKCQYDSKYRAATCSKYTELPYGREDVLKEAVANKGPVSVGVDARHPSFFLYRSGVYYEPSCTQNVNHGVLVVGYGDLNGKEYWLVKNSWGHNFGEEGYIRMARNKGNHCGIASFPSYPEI
row,SMILES,Ki
1,"CS(=O)(=O)c1ccc(C(=O)N[C@@H](CC2CCCCC2)C(=O)NCCN2CCc3cc(F)ccc32)s1 [Compound 72, 5-Methanesulfonyl-thiophene-2-carboxylic acid (S)-{2-cyclohexyl-1-[2-(5-fluoro-2,3-dihydro-indol-1-yl)-ethylcarbamoyl]-ethyl}-amide]",< 100 nM
2,"COc1ccc(N2CCC[C@@H](NC(=O)[C@H](CC(C)C)NC(=O)c3cccc(C)c3)C2)cc1 (single isomer, unassigned) [Compound 32]",< 10000 nM
3,"C[C@@H](CNc1cccc(C(N)=O)c1)NC(=O)[C@H](CC1CCCCC1)NC(=O)c1ccc(-c2cccc(F)c2)o1 [Compound 98, 5-(3-Fluoro-phenyl)-furan-2-carboxylic acid {1-(S)-[2-(3-carbamoyl-phenylamino)-1-(S)-methyl-ethylcarbamoyl]-2-cyclohexyl-ethyl}-amide]",< 100 nM
4,"C[C@@H](CNc1ccc(OC(F)(F)F)cc1)NC(=O)[C@H](CC1CCCCC1)NC(=O)C1CCOCC1 [Compound 135, Tetrahydropyran-4-carboxylic acid {2-cyclohexyl-1-(S)-[1-(S)-methyl-2-(4-trifluoromethoxy-phenylamino)-ethylcarbamoyl]-ethyl}-amide]",< 100 nM
5,"Cc1cccc(C(=O)N[C@@H](Cc2ccccc2Cl)C(=O)NCCN2CCc3cc(F)ccc32)c1 [Compound 195, N-((S)-1-(2-(5-fluoroindolin-1-yl)ethylcarbamoyl)-2-(2-chlorophenyl)ethyl)-3-methylbenzamide]",< 1000 nM
6,"COc1cccc(C(=O)N[C@@H](CC2CCCCC2)C(=O)N[C@@H](CC(=O)OCc2ccccc2)CN2CCc3cc(F)ccc32)c1 [Compound 161, 3-(S)-[3-Cyclohexyl-2-(S)-(3-methoxy-benzoylamino)-propionylamino]-4-(5-fluoro-2,3-dihydro-indol-1-yl)-butyric acid benzyl ester]",< 100 nM
7,"C[C@@H](CNc1cccc(C(=O)N(C)C)c1)NC(=O)[C@H](CC1CCCCC1)NC(=O)c1ccc(-c2cccc(F)c2)o1 [Compound 120, 5-(3-Fluoro-phenyl)-furan-2-carboxylic acid {2-cyclohexyl-1-(S)-[2-(3-dimethylcarbamoyl-phenylamino)-1-(S)-methyl-ethylcarbamoyl]-ethyl}-amide]",< 100 nM
8,"Cc1nc(C)c(S(=O)(=O)N[C@@H](CC2CCCCC2)C(=O)N[C@@H](C)CN2CCc3cc(F)ccc32)s1 [Compound 210, (S,S)-3-Cyclohexyl-2-(2,4-dimethyl-thiazole-5-sulfonylamino)-N-[2-(5-fluoro-2,3-dihydro-indol-1-yl)-1-methyl-ethyl]-propionamide]",< 100 nM
9,"C[C@@H](CNc1ccc(OC(F)(F)F)cc1)NC(=O)[C@H](CC1CCCCC1)NC(=O)c1cnn(-c2ccc(F)cc2)c1 [Compound 142, 1-(4-Fluoro-phenyl)-1H-pyrazole-4-carboxylic acid {2-cyclohexyl-1-(S)-[1-(S)-methyl-2-(4-trifluoromethoxy-phenylamino)-ethylcarbamoyl]-ethyl}-amide]",< 100 nM
10,"COc1ccc(CC(=O)N[C@@H](CC2CCCCC2)C(=O)NCCN2CCc3cc(F)ccc32)cc1 [Compound 6, (S)-3-Cyclohexyl-N-[2-(5-fluoro-2,3-dihydro-indol-1-yl)-ethyl]-2-[2-(4-methoxy-phenyl)-acetylamino]-propionamide]",< 1000 nM
11,"C[C@@H](CNc1ccc(OC(F)(F)F)cc1)NC(=O)[C@H](CC1CCCCC1)NC(=O)c1ccc(-c2ccc[n+]([O-])c2)o1 [Compound 144, 5-(1-Oxy-pyridin-3-yl)-furan-2-carboxylic acid {2-cyclohexyl-1-(S)-[1-(S)-methyl-2-(4-trifluoromethoxy-phenylamino)-ethylcarbamoyl]-ethyl}-amide]",< 100 nM
12,"Cc1cccc(C(=O)NC(C(=O)NCCN2CCc3cc(F)ccc32)c2ccc(Cl)cc2Cl)c1 (racemic) [Compound 213, (R,S)-N-((2-(5-fluoroindolin-1-yl)ethylcarbamoyl)(2,4-dichlorophenyl)methyl)-3-methylbenzamide]",< 1000 nM
